Assays:
[1] = Relative solubility in water
[2] = Moisture adsorption/desorption isotherm (moisture balance); type: physicochemical; settings: for Hygroscopicity from moisture adsorption/desorption curves: 25° C., 5 to 95% relative humidity
Description: Moisture adsorption; desorption data were collected on a VTI SGA-100 moisture balance system. available from VTI Corporation of Hialeah, Fla. For adsorption isotherms an adsorption range of 5 to 95% relative humidity and a desorption range of 95 to 5% relative humidity in 10% relative humidity increments were used for analysis. The samples were not dried prior to analysis. Equilibrium criteria used for analysis were less than 0.0100 weight percent change in 5 minutes with a maximum equilibration time of 3 hours if the weight criterion was not met. Data were not corrected for the initial moisture content of-the samples.

[3] = Solid-state stability on storage at controlled temperature and relative humidity or on heating; settings: for Stability on storage (form conversion): about 60° C. and about 75% relative humidity; for Stability on heating (form conversion): heated at about 80° C.

Row | SMILES | Solubility in water relative to the other form [1] | Hygroscopicity from moisture adsorption/desorption curves [2] | Stability on storage ([3]; about 40° C. and about 75% relative humidity for 4 weeks) | Stability on storage (form conversion) ([3]; 4 weeks (same time period)) | Stability on heating (form conversion) [3] | Form conversion in solvent (solvent system containing an organic solvent and optionally water) | Form conversion in water (water) | Relative humidity up to which the form is generally anhydrous ([2]; relative humidity) | Stability on storage of hydrates (form conversion) ([3]; about 40° C. and about 75% relative humidity, time not stated) | Stability on storage (form conversion) ([3]; time not stated) | Relative stability in aqueous and non-aqueous environments (aqueous and non-aqueous environments) | Relative stability versus the other forms ([3]; absence of water) | General stability to humidity and temperature ([3]; broad range of humidity and temperature conditions)
1 | CCN(C(C)=O)c1cccc(-c2ccnc3c(C#N)cnn23)c1 [Form II, N-[3-(3-cyanopyrazolo[1,5a]pyrimidin-7-yl)phenyl]-N-ethylacetamide] | mole soluble in water than Form III | moisture content of Form II of zaleplon varies depending on the relative humidity of its environment | stable | converts into Form I | converts into Form I | converts into Form III | converted into Form III | – | – | – | – | – | –
2 | CCN(C(C)=O)c1cccc(-c2ccnc3c(C#N)cnn23)c1 [Form III, N-[3-(3-cyanopyrazolo[1,5a]pyrimidin-7-yl)phenyl]-N-ethylacetamide] | – | – | – | – | converts to Form I | – | – | about 30% | resulting in a mixture of Forms II and III | converts to Form I | more stable in aqueous and non-aqueous environments than Form II | – | –
3 | CCN(C(C)=O)c1cccc(-c2ccnc3c(C#N)cnn23)c1 [Form I, N-[3-(3-cyanopyrazolo[1,5a]pyrimidin-7-yl)phenyl]-N-ethylacetamide] | – | non-hygroscopic | – | – | – | – | – | – | – | – | – | more stable than Forms II and III | stable

Source: US20050176735A1, “Polymorphs of zaleplon and methods for the preparation thereof” (priority 2000, published 2005)
